# Experimental data reported in article PMC6568410, “A scorpion venom peptide derivative BmKn‒22 with potent antibiofilm activity against Pseudomonas aeruginosa” (PLoS ONE, 2019).
# Where no end group is shown, it is not given here.
# Tested on: pyocyanin production of P. aeruginosa PAO1
# Test: Pyocyanin assay, chloroform extraction
# Assay type: cell-based, Pseudomonas aeruginosa
# Description: Pyocyanin pigments produced by P. aeruginosa PAO1 after exposure to the BmKn‒22 peptide were determined according to the protocol described previously. Briefly, 750 μL of P. aeruginosa suspension (10^7 CFU/mL, final concentration) was mixed with 250 μL of LB broth containing the test peptide at final concentrations of 200 ‒ 800 μM and incubated at 37 ^OC for 24 hours with agitation (150 rpm). Control culture without the test peptide was simultaneously propagated. After centrifugation at 4,500 rpm for 10 minutes, supernatant was collected and pyocyanin was extracted with chloroform followed by 0.2 N HCl. The suspension was centrifuged once at 4,500 rpm for 10 minutes, and the pink phase layer was subjected to optical density determination at […] using a microplate reader (BioTek Synergy HT).
sequence,measurement,setting,value
FIGAIARLLSK [BmKn-22],Pyocyanin production (% control),"200 µM, 37 °C, 24 h, 150 rpm, OD 380 nm, mean of 3 independent experiments",47.395 % control
same,Pyocyanin production (% control),"200 µM, Exp. 1",62.849 % control
same,Pyocyanin production (% control),"200 µM, Exp. 2",40.419 % control
same,Pyocyanin production (% control),"200 µM, Exp. 3",38.918 % control
same,Pyocyanin production (% control),"400 µM, 37 °C, 24 h, 150 rpm, OD 380 nm, mean of 3 independent experiments",48.157 % control
same,Pyocyanin production (% control),"400 µM, Exp. 1",59.310 % control
same,Pyocyanin production (% control),"400 µM, Exp. 2",37.273 % control
same,Pyocyanin production (% control),"400 µM, Exp. 3",47.889 % control
same,Pyocyanin production (% control),"800 µM, 37 °C, 24 h, 150 rpm, OD 380 nm, mean of 3 independent experiments",60.164 % control
same,Pyocyanin production (% control),"800 µM, Exp. 1",68.994 % control
same,Pyocyanin production (% control),"800 µM, Exp. 2",42.898 % control
same,Pyocyanin production (% control),"800 µM, Exp. 3",68.601 % control
